Assay results reported in patent publication US7589094B2, “N- (3-amino-2-hydroxy-propyl) substituted alkylamide compounds” (Elan Pharmaceuticals, Inc., priority 2001, dated 2009).

melting point [°C]	SMILES
52 to 54	CCCC1CCC(CC(=O)N[C@@H](Cc2cc(F)cc(F)c2)[C@H](O)CNCc2cccc(CC)c2)CC1=O (stereo partly drawn) [Compound 213, N-{(1S,2R)-1-(3,5-difluorobenzyl)-3-[(3-ethylbenzyl)amino]-2-hydroxypropyl}-2-(3-oxo-4-propylcyclohexyl)acetamide]
139.5 to 149.8	CCc1cccc(CNC[C@@H](O)[C@H](Cc2cc(F)cc(F)c2)NC(=O)CC2CCCC(=O)C2)c1 (stereo partly drawn) [Compound 214, N-{(1S,2R)-1-(3,5-difluorobenzyl)-3-[(3-ethylbenzyl)amino]-2-hydroxypropyl}-2-(3-oxocyclohexyl)acetamide]
